Publication PMC6931042 (Bioorganic chemistry, 2018)

Key:
RPMI-8226 = test: NCI in vitro five dose anticancer assay; type: cell-based, human; settings: Homo sapiens
[1] = system: p53, p21, cyclin B1 and Cdc2 in A549 cells; test: Western blotting, p53 and cell cycle regulators; type: cell-based, human; settings: 1, 3 and 6 μM, western blot
MCF7 = test: NCI in vitro five dose anticancer assay; type: cell-based, human; settings: Homo sapiens
BT-549 = test: NCI in vitro five dose anticancer assay; type: cell-based, human; settings: Homo sapiens
OVCAR-5 = test: NCI in vitro five dose anticancer assay; type: cell-based, human; settings: Homo sapiens
A549 cells [2] = test: Cell cycle analysis by flow cytometry; type: cell-based, human; settings: 24 h
M14 = test: NCI in vitro five dose anticancer assay; type: cell-based, human; settings: Homo sapiens
SN12C = test: NCI in vitro five dose anticancer assay; type: cell-based, human; settings: Homo sapiens
DU-145 = test: NCI in vitro five dose anticancer assay; type: cell-based, human; settings: Homo sapiens
PI3K-δ = PI3K-δ (Homo sapiens, UniProt O00329); test: PI3K biochemical assay
CCRF-CEM = test: NCI in vitro five dose anticancer assay; type: cell-based, human; settings: Homo sapiens
A549 cells [3] = test: Apoptosis, annexin V-FITC/PI flow cytometry; type: cell-based, human; settings: for percentage of apoptotic cells: 48 h
A549/ATCC = test: NCI in vitro five dose anticancer assay; type: cell-based, human; settings: Homo sapiens, A549
HCC-2998 = test: NCI in vitro five dose anticancer assay; type: cell-based, human; settings: Homo sapiens, HCC 2998
SK-MEL-5 = test: NCI in vitro five dose anticancer assay; type: cell-based, human; settings: Homo sapiens
PI3K-β = PI3K-β (Homo sapiens, UniProt P42338); test: PI3K biochemical assay
786–0 = test: NCI in vitro five dose anticancer assay; type: cell-based, human; settings: Homo sapiens, 786-0
NCI-H522 = test: NCI in vitro five dose anticancer assay; type: cell-based, human; settings: Homo sapiens
HT29 = test: NCI in vitro five dose anticancer assay; type: cell-based, human; settings: Homo sapiens, HT-29
LOX IMVI = test: NCI in vitro five dose anticancer assay; type: cell-based, human; settings: Homo sapiens
TK-10 = test: NCI in vitro five dose anticancer assay; type: cell-based, human; settings: Homo sapiens
NCI/ADR-RES = test: NCI in vitro five dose anticancer assay; type: cell-based, human; settings: Homo sapiens
[4] = system: p53, p21, cyclin B1 and Cdc2 in K-562 cells; test: Western blotting, p53 and cell cycle regulators; type: cell-based, human; settings: 1, 3 and 6 μM, western blot
SF-268 = test: NCI in vitro five dose anticancer assay; type: cell-based, human; settings: Homo sapiens
HL-60(TB) = test: NCI in vitro five dose anticancer assay; type: cell-based, human; settings: Homo sapiens, HL-60
K-562 cells = test: Cell cycle analysis by flow cytometry; type: cell-based, human; settings: 24 h
PI3K-γ = PI3K-γ (Homo sapiens, UniProt P48736); test: PI3K biochemical assay
[5] = system: p-PI3K, p-Akt, p-mTOR and p-GSK-3β in K-562 cells; test: Western blotting, PI3K/Akt/mTOR pathway; type: cell-based, human; settings: 1, 3, or 6 μM, western blot, dose-dependent
IGROV1 = test: NCI in vitro five dose anticancer assay; type: cell-based, human; settings: Homo sapiens, IGROV-1
NCI-H226 = test: NCI in vitro five dose anticancer assay; type: cell-based, human; settings: Homo sapiens
[6] = system: p-PI3K, p-Akt, p-mTOR and p-GSK-3β in A549 cells; test: Western blotting, PI3K/Akt/mTOR pathway; type: cell-based, human; settings: 1, 3, or 6 μM, western blot, dose-dependent
OVCAR-3 = test: NCI in vitro five dose anticancer assay; type: cell-based, human; settings: Homo sapiens
T-47D = test: NCI in vitro five dose anticancer assay; type: cell-based, human; settings: Homo sapiens, T47D

PI3K-γ, sequence (P48736 whole entry): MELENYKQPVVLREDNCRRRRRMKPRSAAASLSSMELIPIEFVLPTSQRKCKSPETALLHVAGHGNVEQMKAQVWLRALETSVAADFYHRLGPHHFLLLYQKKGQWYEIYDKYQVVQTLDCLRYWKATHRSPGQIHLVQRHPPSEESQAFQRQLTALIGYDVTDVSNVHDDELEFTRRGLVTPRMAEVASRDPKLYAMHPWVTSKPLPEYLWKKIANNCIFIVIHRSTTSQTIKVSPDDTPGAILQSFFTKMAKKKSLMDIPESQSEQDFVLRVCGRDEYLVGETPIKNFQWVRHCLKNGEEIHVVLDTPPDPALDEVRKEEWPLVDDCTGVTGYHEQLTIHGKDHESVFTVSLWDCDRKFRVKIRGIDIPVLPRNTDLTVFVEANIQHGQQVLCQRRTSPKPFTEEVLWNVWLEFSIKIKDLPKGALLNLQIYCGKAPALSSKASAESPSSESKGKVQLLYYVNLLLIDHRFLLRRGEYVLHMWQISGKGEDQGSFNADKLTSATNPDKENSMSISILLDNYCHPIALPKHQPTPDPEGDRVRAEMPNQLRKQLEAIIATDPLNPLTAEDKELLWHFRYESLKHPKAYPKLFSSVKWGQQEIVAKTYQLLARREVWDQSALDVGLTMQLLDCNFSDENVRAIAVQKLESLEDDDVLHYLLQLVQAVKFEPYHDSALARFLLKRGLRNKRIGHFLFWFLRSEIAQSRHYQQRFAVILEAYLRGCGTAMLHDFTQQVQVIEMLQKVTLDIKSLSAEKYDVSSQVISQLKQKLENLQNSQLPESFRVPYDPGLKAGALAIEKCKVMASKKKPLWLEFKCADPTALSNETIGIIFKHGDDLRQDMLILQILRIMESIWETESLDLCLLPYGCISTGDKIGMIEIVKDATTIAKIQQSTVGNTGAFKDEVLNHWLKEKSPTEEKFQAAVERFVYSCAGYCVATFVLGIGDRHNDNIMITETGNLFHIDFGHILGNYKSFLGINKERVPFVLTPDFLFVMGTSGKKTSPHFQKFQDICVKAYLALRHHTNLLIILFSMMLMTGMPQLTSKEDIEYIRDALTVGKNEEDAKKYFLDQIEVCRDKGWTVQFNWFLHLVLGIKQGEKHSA
PI3K-δ, sequence (O00329 whole entry): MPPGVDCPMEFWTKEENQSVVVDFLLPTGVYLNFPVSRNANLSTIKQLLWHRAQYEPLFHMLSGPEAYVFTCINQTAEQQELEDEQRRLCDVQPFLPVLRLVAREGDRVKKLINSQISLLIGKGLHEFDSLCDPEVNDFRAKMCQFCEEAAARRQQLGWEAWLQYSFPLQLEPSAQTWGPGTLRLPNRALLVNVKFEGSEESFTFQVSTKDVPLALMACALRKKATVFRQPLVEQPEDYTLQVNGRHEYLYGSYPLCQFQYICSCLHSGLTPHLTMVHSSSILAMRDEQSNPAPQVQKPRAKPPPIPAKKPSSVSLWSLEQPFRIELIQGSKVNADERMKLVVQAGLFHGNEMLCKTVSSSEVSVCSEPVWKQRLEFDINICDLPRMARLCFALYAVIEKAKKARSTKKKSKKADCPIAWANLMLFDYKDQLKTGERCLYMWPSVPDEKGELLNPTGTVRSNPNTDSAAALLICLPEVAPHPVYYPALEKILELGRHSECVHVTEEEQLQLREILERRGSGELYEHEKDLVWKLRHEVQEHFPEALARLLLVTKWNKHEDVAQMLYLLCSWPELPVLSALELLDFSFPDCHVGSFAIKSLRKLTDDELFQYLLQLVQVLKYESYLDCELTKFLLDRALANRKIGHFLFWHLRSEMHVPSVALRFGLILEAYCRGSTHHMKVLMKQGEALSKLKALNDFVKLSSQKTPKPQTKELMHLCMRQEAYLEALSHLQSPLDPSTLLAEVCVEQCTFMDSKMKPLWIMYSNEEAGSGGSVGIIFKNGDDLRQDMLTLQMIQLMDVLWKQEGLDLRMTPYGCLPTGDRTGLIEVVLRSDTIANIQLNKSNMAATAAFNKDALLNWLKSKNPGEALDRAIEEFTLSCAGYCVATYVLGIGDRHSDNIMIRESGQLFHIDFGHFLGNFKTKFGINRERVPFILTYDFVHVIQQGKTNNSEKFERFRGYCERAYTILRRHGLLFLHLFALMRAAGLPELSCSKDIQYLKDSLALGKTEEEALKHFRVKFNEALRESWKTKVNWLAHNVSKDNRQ
PI3K-δ, sequence (P27986 whole entry partner): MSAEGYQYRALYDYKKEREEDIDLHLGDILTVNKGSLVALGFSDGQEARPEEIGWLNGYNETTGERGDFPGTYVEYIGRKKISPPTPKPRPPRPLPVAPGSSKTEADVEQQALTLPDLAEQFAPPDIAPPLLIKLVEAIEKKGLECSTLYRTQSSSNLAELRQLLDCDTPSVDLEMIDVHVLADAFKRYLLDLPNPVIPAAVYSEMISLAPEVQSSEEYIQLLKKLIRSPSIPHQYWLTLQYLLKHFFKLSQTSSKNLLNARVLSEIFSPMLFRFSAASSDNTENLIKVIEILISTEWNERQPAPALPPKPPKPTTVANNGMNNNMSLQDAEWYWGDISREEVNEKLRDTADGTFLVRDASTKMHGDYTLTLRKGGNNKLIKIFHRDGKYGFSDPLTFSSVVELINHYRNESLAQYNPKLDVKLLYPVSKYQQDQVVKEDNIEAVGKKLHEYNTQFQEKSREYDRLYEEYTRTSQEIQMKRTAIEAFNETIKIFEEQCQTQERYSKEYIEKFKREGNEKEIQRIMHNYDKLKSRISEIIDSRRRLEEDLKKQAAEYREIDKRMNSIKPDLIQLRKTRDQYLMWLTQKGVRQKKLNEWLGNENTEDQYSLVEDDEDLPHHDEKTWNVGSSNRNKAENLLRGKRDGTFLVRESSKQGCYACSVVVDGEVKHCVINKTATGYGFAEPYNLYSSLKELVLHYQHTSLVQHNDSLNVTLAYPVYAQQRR
PI3K-β, sequence (P42338 whole entry): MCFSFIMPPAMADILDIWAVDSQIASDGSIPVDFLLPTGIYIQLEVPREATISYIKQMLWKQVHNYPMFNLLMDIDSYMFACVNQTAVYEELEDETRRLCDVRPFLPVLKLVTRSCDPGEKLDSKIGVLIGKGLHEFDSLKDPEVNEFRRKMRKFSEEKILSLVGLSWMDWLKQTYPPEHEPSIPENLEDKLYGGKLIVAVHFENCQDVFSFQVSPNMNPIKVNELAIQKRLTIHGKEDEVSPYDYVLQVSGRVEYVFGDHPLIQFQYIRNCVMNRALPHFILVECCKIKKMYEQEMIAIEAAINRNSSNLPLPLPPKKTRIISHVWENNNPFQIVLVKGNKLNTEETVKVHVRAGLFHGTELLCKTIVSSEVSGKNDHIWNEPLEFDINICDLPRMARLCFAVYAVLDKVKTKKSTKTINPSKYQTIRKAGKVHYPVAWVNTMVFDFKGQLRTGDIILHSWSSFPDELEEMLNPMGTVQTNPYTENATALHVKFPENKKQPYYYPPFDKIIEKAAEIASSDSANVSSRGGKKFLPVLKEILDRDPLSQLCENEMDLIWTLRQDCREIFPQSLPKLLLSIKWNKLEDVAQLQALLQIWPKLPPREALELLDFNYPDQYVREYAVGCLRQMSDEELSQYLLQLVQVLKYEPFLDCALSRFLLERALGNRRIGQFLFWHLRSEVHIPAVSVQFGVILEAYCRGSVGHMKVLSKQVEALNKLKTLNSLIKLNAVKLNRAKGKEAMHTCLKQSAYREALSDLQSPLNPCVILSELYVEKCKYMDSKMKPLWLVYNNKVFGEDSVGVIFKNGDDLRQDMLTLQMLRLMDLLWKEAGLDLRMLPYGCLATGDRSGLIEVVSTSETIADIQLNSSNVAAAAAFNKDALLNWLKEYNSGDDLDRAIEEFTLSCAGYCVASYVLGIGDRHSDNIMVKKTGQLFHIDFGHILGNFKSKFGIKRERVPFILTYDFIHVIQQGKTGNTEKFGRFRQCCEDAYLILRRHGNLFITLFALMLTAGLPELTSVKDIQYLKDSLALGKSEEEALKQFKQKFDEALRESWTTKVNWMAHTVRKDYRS
PI3K-β, sequence (P27986 whole entry partner): as the sequence (P27986 whole entry partner) above

For `Cc1ccc(-c2cc(C(=O)NN=C(/C=C\c3ccc(Cl)cc3)c3ccc(N)cc3)c3ccccc3n2)cc1` [Compound 9j, N’-((Z)-1-(4-Aminophenyl)-3-(4-chlorophenyl)allylidene)-2-(4-methylphenyl)quinoline-4-carbohydrazide], the GI50 (RPMI-8226) was 4.1 µM, the “expression of wild type p53” value [1] was “upregulated” and the “expression of Cdc2” value ([1]; dose dependent) was “attenuated”. The “expression of cyclin B1” value ([1]; dose dependent) was “attenuated”, the “expression of p21” value ([1]; dose dependent) was “significantly induced” and the GI50 (MCF7) was 2.53 µM. The GI50 (BT-549) was 3.92 µM, the GI50 (OVCAR-5) was 8.43 µM and the “percentage of cells in the G2/M phase” value (A549 cells [2]; 1 μM) was 6.22%. For the same compound, the “percentage of cells in the G2/M phase” value (A549 cells [2]; 3 μM) was 15.8%, the “percentage of cells in the G2/M phase” value (A549 cells [2]; 6 μM) was 59.6% and the GI50 (M14) was 2.54 µM. It also gave a GI50 (SN12C) of 6.84 µM, a GI50 (DU-145) of 3.68 µM and an IC50 (PI3K-δ) of 0.473 µM. For the same compound, the GI50 (CCRF-CEM) was 4.53 µM, the “percentage of apoptotic cells” value (A549 cells [3]; 1 μM) was 14.68% and the “percentage of apoptotic cells” value (A549 cells [3]; 3 μM) was 14.07%. The “percentage of apoptotic cells” value (A549 cells [3]; 6 μM) was 28.1%, the “proportion of apoptotic cells compared to control” value (A549 cells [3]; 1, 3, or 6 μM, 24 h, data not shown) was “did not result in changes” and the GI50 (A549/ATCC) was 4.79 µM. It also gave a GI50 (HCC-2998) of 4.28 µM, a GI50 (SK-MEL-5) of 2.5 µM and an IC50 (PI3K-β) of 0.36 µM. The GI50 (786–0) was 4.22 µM, the GI50 (NCI-H522) was 0.622 µM and the GI50 (HT29) was 3.35 µM. For the same compound, the GI50 (LOX IMVI) was 4 µM, the GI50 (TK-10) was 8.51 µM and the GI50 (NCI/ADR-RES) was 2.54 µM. For the same compound, the “expression of non-functional p53” value [4] was “no effect”, the “expression of Cdc2” value ([4]; dose dependent) was “attenuated” and the “expression of cyclin B1” value ([4]; dose dependent) was “attenuated”. The “expression of p21” value ([4]; dose dependent) was “significantly induced”, the GI50 (SF-268) was 4.09 µM and the GI50 (HL-60(TB)) was 3.49 µM. For the same compound, the “percentage of cells in the G2/M phase” value (K-562 cells; 1 μM) was 5.1%, the “percentage of cells in the G2/M phase” value (K-562 cells; 3 μM) was 16.6% and the “percentage of cells in the G2/M phase” value (K-562 cells; 6 μM) was 41.7%. The IC50 (PI3K-γ) was 0.197 µM, the “levels of phosphorylated Akt (at Ser473)” value [5] was “decreases” and the “levels of phosphorylated GSK-3β” value [5] was “decreases”. The “levels of phosphorylated PI3K (at Tyr458)” value [5] was “decreases”, the “levels of phosphorylated mTOR (at Ser2448)” value [5] was “decreases” and the GI50 (IGROV1) was 6.48 µM. For the same compound, the GI50 (NCI-H226) was 6.47 µM, the “levels of phosphorylated Akt (at Ser473)” value [6] was “decreases” and the “levels of phosphorylated GSK-3β” value [6] was “decreases”. For the same compound, the “levels of phosphorylated PI3K (at Tyr458)” value [6] was “decreases”, the “levels of phosphorylated mTOR (at Ser2448)” value [6] was “decreases” and the GI50 (OVCAR-3) was 2.98 µM. The GI50 (T-47D) was 2.73 µM.
